According to patent US20110105504A1, “Inhibitors Of 11beta-Hydroxysteroid Dehydrogenase Type 1” (Vitae Pharmaceuticals ,Inc., priority 2008, published 2011):
pIC50: −log10 of the molar value.

Target: T1, human 11β-HSD1 (Homo sapiens, UniProt P28845)
T1 construct: expressed in transfected cells; host or cells: CHO cells (microsomes isolated from them)
Experiment: Inhibition of microsomal preparation of 11β-HSD1 (SPA, [3H]cortisone to [3H]cortisol), Biological Test Example 1
Format: biochemical
Settings: microsomes from CHO cells overexpressing human 11β-HSD1; for Average % inhibition at 100 nM / inhibition at 0.1 µM: 100 nM compound; for Average % inhibition at 100 nM: 0.1 µM; for pIC50: read-out: IC50 Range
Experimental: The inhibition of microsomal preparation of 11β-HSD1 by compounds of the invention was measured essentially as previously described (K. Solly, S. S. Mundt, H. J. Zokian, G. J. Ding, A. Hermanowski-Vosatka, B. Strulovici, and W. Zheng, High-Throughput Screening of 11-Beta-Hydroxysteroid Dehydrogenase Type 1 in Scintillation Proximity Assay Format. Assay Drug Dev Technol 3 (2005) 377-384). All reactions were carried out at room temperature in 96 well clear flexible PET Microbeta plates (PerkinElmer). The assay begins by dispensing 49 p. 1 of substrate solution (50 mM HEPES, pH 7.4, 100 mM KCl, 5 mM NaCl, 2 mM MgCl2, 2 mM NADPH and 160 nM [^3H]cortisone (1 Ci/mmol)) and mixing in 1 μL of the test compounds in DMSO previously diluted in half-log increments (8 points) starting at 0.1 mM. After a 10 minute pre-incubation, 50 μL of enzyme solution containing microsomes isolated from CHO cells overexpressing human 11β-HSD1 (10-20 μg/ml of total protein) was added, and the plates were incubated for 90 minutes at room temperature. The reaction was stopped by adding 50 μl of the SPA beads suspension containing 10 μM 18β-glycyrrhetinic acid, 5 mg/ml protein A coated YSi SPA beads (GE Healthcare) and 3.3 μg/ml of anti-cortisol antibody (East Coast Biologics) in Superblock buffer (Bio-Rad). The plates were shaken for 120 minutes at room temperature, and the SPA signal corresponding to [^3H]cortisol was measured on a Microbeta plate reader.

T1 sequence (P28845 whole entry): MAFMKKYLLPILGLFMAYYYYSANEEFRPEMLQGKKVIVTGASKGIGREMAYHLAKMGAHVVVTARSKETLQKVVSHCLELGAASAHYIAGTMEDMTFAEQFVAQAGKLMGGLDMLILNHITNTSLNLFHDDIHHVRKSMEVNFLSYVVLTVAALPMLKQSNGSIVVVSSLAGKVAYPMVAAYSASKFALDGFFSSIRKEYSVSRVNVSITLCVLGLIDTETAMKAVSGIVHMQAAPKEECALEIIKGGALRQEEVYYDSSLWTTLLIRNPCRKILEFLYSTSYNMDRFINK

SMILES	Average % inhibition at 100 nM	pIC50	inhibition at 0.1 µM
Cc1cccc(N2CC(C)(c3ccccc3)OC2=O)c1 (stereo not drawn) [Example 7, 5-Methyl-5-phenyl-3-m-tolyloxazolidin-2-one]	–	< 6.00	5.4%
C[C@@H](c1ccc(-c2ccn(C)c(=O)c2)cc1)N1C[C@](CC(C)(C)O)(c2ccccc2)OC1=O (single isomer, unassigned) [Example 5 Isomer 1]	–	> 7.00	51.9%
C[C@@H](c1ccc(-c2ccn(C)c(=O)c2)cc1)N1C[C@](CCC(C)(C)O)(c2ccccc2)OC1=O (single isomer, unassigned) [Example 6 Isomer 1]	–	< 7.00	18.4%
C[C@@H](c1ccc(-c2ccn(C)c(=O)c2)cc1)N1C[C@@](CC(C)(C)O)(c2ccccc2)OC1=O (single isomer, unassigned) [Example 5 Isomer 2]	–	< 7.00	3.4%

Results, then the compound that gave them:

Average % inhibition at 100 nM	pIC50	inhibition at 0.1 µM	SMILES
91.4%	> 7.00	–	C[C@@H](c1ccc(-c2ccc(F)cc2)cc1)N1CC(CCCO)(c2ccc(F)cc2)OC1=O (single isomer, unassigned) [Example 3 Isomer 1]
19.1%	< 7.00	–	C[C@@H](c1ccc(-c2ccc(F)cc2)cc1)N1CC(CCCO)(c2ccc(F)cc2)OC1=O (single isomer, unassigned) [Example 3 Isomer 2]
16.9%	< 7.00	–	C[C@@H](c1ccc(Br)cc1)N1CC(CCCO)(c2ccc(F)cc2)OC1=O (single isomer, unassigned) [Example 2 Isomer 2]
19.8%	< 7.00	–	C[C@@H](c1ccc(-c2ccn(C)c(=O)c2)cc1)N1C[C@](CCC(C)(C)O)(c2ccccc2)OC1=O (single isomer, unassigned) [Example 6 Isomer 2]
78.3%	> 7.00	–	C[C@@H](c1ccc(Br)cc1)N1CC(CCCO)(c2ccc(F)cc2)OC1=O (single isomer, unassigned) [Example 2 Isomer 1]
